Measured values published in ChEMBL document CHEMBL1201862, “PubChem BioAssay data set” (2004).
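Cultured in 96-well plates, cells were exposed to test compound for 48 hours across five concentrations. GI50 = concentration required for 50% inhibition of growth.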 Activity calls are given as the source filed them. No stated cut-off is given here; in the data, active = GI50 up to about 1.1 µM and inactive = higher.

Assays:
Test in all cases: inhibition of tumour cell growth, NCI panel, 48 h
MDA-MB-435 = system: MDA-MB-435
OVCAR-5 = system: OVCAR-5
KM12 = system: KM12
UACC-62 = system: UACC-62
SNB-75 = system: SNB-75
HCC 2998 = system: HCC 2998
HCT-15 = system: HCT-15
SNB-19 = system: SNB-19
Malme-3M = system: Malme-3M
UO-31 = system: UO-31
M14 = system: M14
MDA-MB-231 = system: MDA-MB-231
SF-268 = system: SF-268
PC-3 = system: PC-3
HCT-116 = system: HCT-116
A498 = system: A498
OVCAR-3 = system: OVCAR-3
U-251 = system: U-251
UACC-257 = system: UACC-257
SK-MEL-5 = system: SK-MEL-5

Measured: GI50

N#Cc1c(-c2ccc(Cl)cc2)cc(-c2ccc(Nc3ccnc4cc(Cl)ccc34)cc2)nc1N
inactive: MDA-MB-435 > 100 µM | OVCAR-5 > 100 µM | KM12 > 100 µM | UACC-62 > 100 µM | SNB-75 > 100 µM | HCC 2998 > 100 µM | SNB-19 28.8 µM | Malme-3M > 100 µM | UO-31 > 100 µM | M14 > 100 µM | MDA-MB-231 > 100 µM | SF-268 > 100 µM | PC-3 > 100 µM | HCT-116 > 100 µM | A498 > 100 µM | OVCAR-3 > 100 µM | U-251 97.1 µM
> 100 µM: HCT-15

Nn1c(Nc2ccc(S(=O)(=O)Nc3ncccn3)cc2)nnc(/C=C/c2c(O)ccc3ccccc23)c1=O
inactive: MDA-MB-435 25.2 µM | OVCAR-5 32.7 µM | UACC-62 20.5 µM | UACC-257 20.1 µM | SNB-75 22.2 µM | HCC 2998 23.3 µM | SNB-19 46.9 µM | Malme-3M 30.8 µM | UO-31 30.5 µM | M14 29 µM | MDA-MB-231 21.8 µM | SF-268 31.6 µM | PC-3 27.7 µM | HCT-116 21.1 µM | A498 25.2 µM | OVCAR-3 15.1 µM | U-251 31.9 µM
27.3 µM: HCT-15

NC(=O)N/N=C\c1ccccc1OCc1cccc(COc2ccccc2/C=N\NC(N)=O)n1
64.1 µM: HCT-15
inactive: SK-MEL-5 > 100 µM | MDA-MB-435 > 100 µM | OVCAR-5 41.2 µM | KM12 > 100 µM | UACC-62 19.1 µM | UACC-257 > 100 µM | HCC 2998 21.3 µM | SNB-19 30.8 µM | Malme-3M 72.9 µM | UO-31 29.9 µM | M14 49.2 µM | MDA-MB-231 14.6 µM | SF-268 21 µM | PC-3 86.9 µM | HCT-116 33.9 µM | A498 98.6 µM | OVCAR-3 > 100 µM | U-251 5.56 µM

CC1(O)CC23CC(O)C4(O)C(CC(O)C4(C)C)C(C)(O)C2CCC1C3O (configuration not stated)
inactive: SK-MEL-5 > 100 µM | MDA-MB-435 > 100 µM | OVCAR-5 > 100 µM | KM12 > 100 µM | UACC-62 > 100 µM | UACC-257 > 100 µM | HCC 2998 > 100 µM | SNB-19 > 100 µM | Malme-3M > 100 µM | UO-31 > 100 µM | M14 > 100 µM | MDA-MB-231 > 100 µM | SF-268 > 100 µM | PC-3 > 100 µM | HCT-116 > 100 µM | A498 > 100 µM | U-251 > 100 µM
> 100 µM: HCT-15

COc1cc(/C=C2/C[C@H]3[C@@H]4CC=C5C[C@@H](O)CC[C@]5(C)[C@H]4CC[C@]3(C)NC2=O)cc(OC)c1OC
inactive: SK-MEL-5 6.7 µM | MDA-MB-435 20.7 µM | OVCAR-5 29.6 µM | KM12 30.9 µM | UACC-62 16.3 µM | UACC-257 27.5 µM | HCC 2998 10.9 µM | SNB-19 20.1 µM | Malme-3M 13.3 µM | UO-31 9.68 µM | M14 30.5 µM | MDA-MB-231 20.1 µM | SF-268 9.12 µM | PC-3 18.7 µM | HCT-116 22.1 µM | A498 5.24 µM | OVCAR-3 28.7 µM | U-251 22.5 µM
16.3 µM: HCT-15

CC(NC(=O)OC(C)(C)C)C(=O)C(N)=O (configuration not stated)
> 100 µM: HCT-15
inactive: SK-MEL-5 > 100 µM | MDA-MB-435 > 100 µM | OVCAR-5 > 100 µM | SNB-75 > 100 µM | HCC 2998 > 100 µM | SNB-19 > 100 µM | UO-31 > 100 µM | M14 > 100 µM | MDA-MB-231 > 100 µM | SF-268 > 100 µM | PC-3 > 100 µM | HCT-116 > 100 µM | A498 > 100 µM | U-251 > 100 µM

N#CC(=C1CCCCC1)c1nc2ccccc2o1
inactive: SK-MEL-5 41.4 µM | MDA-MB-435 > 100 µM | OVCAR-5 > 100 µM | KM12 32 µM | UACC-62 68.9 µM | UACC-257 > 100 µM | HCC 2998 50 µM | SNB-19 > 100 µM | Malme-3M > 100 µM | UO-31 47.2 µM | M14 80.7 µM | MDA-MB-231 > 100 µM | SF-268 55.2 µM | PC-3 56.9 µM | HCT-116 55.3 µM | A498 > 100 µM | OVCAR-3 56.5 µM | U-251 57.9 µM
49.4 µM: HCT-15

Cc1ccc2c(sc(-c3ccc4c(c3)sc(-c3ccc(N(C)C)cc3)[n+]4C)[n+]2C)c1S(=O)(=O)O.Cc1ccc2c(sc(-c3ccc4c(c3)sc(-c3ccc5c(c3)sc(-c3ccc(N(C)C)cc3)[n+]5C)[n+]4C)[n+]2C)c1S(=O)(=O)O
inactive: SK-MEL-5 > 100 µM | MDA-MB-435 > 100 µM | OVCAR-5 > 100 µM | KM12 73.1 µM | UACC-62 > 100 µM | UACC-257 > 100 µM | SNB-75 > 100 µM | HCC 2998 > 100 µM | SNB-19 > 100 µM | UO-31 > 100 µM | M14 > 100 µM | MDA-MB-231 22 µM | SF-268 > 100 µM | PC-3 > 100 µM | HCT-116 > 100 µM | A498 > 100 µM | OVCAR-3 > 100 µM | U-251 > 100 µM
66.1 µM: HCT-15

COc1cc(/C=N/n2c(Cc3ccc(Cl)cc3)n[nH]c2=O)cc(OC)c1OC
> 100 µM: HCT-15
inactive: MDA-MB-435 > 100 µM | OVCAR-5 > 100 µM | KM12 50 µM | UACC-62 > 100 µM | UACC-257 37.5 µM | SNB-75 65.2 µM | HCC 2998 37.7 µM | SNB-19 > 100 µM | Malme-3M > 100 µM | UO-31 > 100 µM | M14 > 100 µM | MDA-MB-231 > 100 µM | SF-268 46.3 µM | PC-3 > 100 µM | HCT-116 > 100 µM | A498 > 100 µM | OVCAR-3 85.9 µM | U-251 > 100 µM

Clc1ccc(CSC2=NCCN2)cc1Cl
15 µM: HCT-15
inactive: SK-MEL-5 12.7 µM | MDA-MB-435 16 µM | OVCAR-5 19.3 µM | KM12 16.9 µM | UACC-62 15.9 µM | UACC-257 11.1 µM | HCC 2998 15.2 µM | SNB-19 32.3 µM | Malme-3M 13 µM | UO-31 11.4 µM | M14 15.2 µM | MDA-MB-231 11.8 µM | SF-268 14.9 µM | PC-3 10.4 µM | HCT-116 14.9 µM | A498 21.3 µM | OVCAR-3 14.1 µM | U-251 12.5 µM

COc1ccc(C2=Nc3cc(C)c(C)cc3NC(c3ccccc3)C2)cc1 (configuration not stated)
inactive: SK-MEL-5 29.6 µM | MDA-MB-435 50.2 µM | OVCAR-5 > 100 µM | KM12 > 100 µM | UACC-62 > 100 µM | UACC-257 34.4 µM | HCC 2998 > 100 µM | SNB-19 > 100 µM | Malme-3M 40.5 µM | UO-31 57 µM | M14 > 100 µM | MDA-MB-231 > 100 µM | SF-268 > 100 µM | PC-3 > 100 µM | HCT-116 27 µM | A498 > 100 µM | OVCAR-3 > 100 µM | U-251 > 100 µM
41.4 µM: HCT-15
